Experimental data from ChEMBL document CHEMBL1687808, “LmrS is a multidrug efflux pump of the major facilitator superfamily from Staphylococcus aureus” (2010).
Converted amounts (≈) assume the structure as drawn. The source made the active and inactive calls. The calls are words filed in the database; no cut-off is given here.

Experiments:
Escherichia coli [1] = assay: Antibacterial activity against Escherichia coli KAM32 harboring Staphylococcus aureus cloned pSP72 lmrS by broth microdilution method; assay type: functional
Escherichia coli [2] = assay: Antibacterial activity against Escherichia coli KAM32 harboring pSP72 by broth microdilution method; assay type: functional
Escherichia coli [3] = assay: Ratio of MIC for Escherichia coli KAM32 harboring cloned pSP72 lmrS to MIC for Escherichia coli KAM32 harboring pSP72; assay type: functional
Escherichia coli [4] = assay: Inhibition of ethidium bromide accumulation in Escherichia coli KAM32 harboring pSP72 at 100 uM by fluorescence spectrophotometer; assay type: functional, organism-based
Staphylococcus aureus [5] = assay: Inhibition of Staphylococcus aureus LmrS expressed in Escherichia coli KAM32 harboring pSP72 assessed as decrease of ethidium bromide efflux at 0.01 mM after 6 mins by fluorescence spectrophotometer relative to control
Escherichia coli [6] = assay: Antibacterial activity against Escherichia coli KAM32 harboring Staphylococcus aureus cloned pSP72 lmrS by broth microdilution method in presence of efflux pump inhibitor CCCP; assay type: functional
Staphylococcus aureus [7] = assay: Inhibition of Staphylococcus aureus LmrS expressed in Escherichia coli KAM32 harboring pSP72 assessed as decrease of ethidium bromide accumulation at 100 uM by fluorescence spectrophotometer relative to control

Row | Compound | MIC (Escherichia coli [1]) [µg/mL] | MIC (Escherichia coli [2]) [µg/mL] | MIC ratio (Escherichia coli [3]) | inhibition (Escherichia coli [4]) | inhibition (Staphylococcus aureus [5]) [%] | MIC (Escherichia coli [6]) [µg/mL] | inhibition (Staphylococcus aureus [7]) [%]
1 | CC[C@H]1OC(=O)[C@H](C)[C@@H](O[C@H]2C[C@@](C)(OC)[C@@H](O)[C@H](C)O2)[C@H](C)[C@@H](O[C@@H]2O[C@H](C)C[C@H](N(C)C)[C@H]2O)[C@](C)(O)C[C@@H](C)C(=O)[C@H](C)[C@@H](O)[C@]1(C)O [ERYTHROMYCIN] | 15.6 (≈ 21.3 µM) | 1.9 (≈ 2.59 µM) | 8.2 | – | – | – | –
2 | N#CC(C#N)=NNc1cccc(Cl)c1 [CARBONYL CYANIDE M-CHLOROPHENYLHYDRAZONE] | – | 8 (≈ 39.1 µM) | – | inactive | 40 | – | –
3 | COc1cc(NS(=O)(=O)c2ccc(N)cc2)nc(OC)n1 [SULFADIMETHOXINE] | 9.76 (≈ 31.4 µM) | 4.88 (≈ 15.7 µM) | 2 | – | – | – | –
4 | CS(=O)(=O)c1ccc([C@@H](O)[C@@H](CF)NC(=O)C(Cl)Cl)cc1 [FLORFENICOL] | 3.13 (≈ 8.74 µM) | 0.39 (≈ 1.09 µM) | 8 | – | – | – | –
5 | CCC[C@@H]1C[C@@H](C(=O)N[C@@H]([C@H]2O[C@H](SC)[C@H](O)[C@@H](O)[C@H]2O)[C@@H](C)O)N(C)C1 [LINCOMYCIN] | 125 (≈ 307 µM) | 31.2 (≈ 76.9 µM) | 4 | – | – | – | –
6 | [Cl-].c1ccc([P+](c2ccccc2)(c2ccccc2)c2ccccc2)cc1 [TETRAPHENYLPHOSPHONIUM CHLORIDE] | 156 | 9.76 | 16 | – | – | – | –
7 | CC(=O)O[C@H]1C[C@@]2(C)[C@@H](C[C@@H](O)[C@H]3[C@@]4(C)CC[C@@H](O)[C@@H](C)[C@@H]4CC[C@@]32C)/C1=C(\CCC=C(C)C)C(=O)O [FUSIDIC ACID] | 250 (≈ 484 µM) | 31.2 (≈ 60.5 µM) | 8 | – | – | 62.5 | –
8 | COc1c(N2CCNC(C)C2)c(F)cc2c(=O)c(C(=O)O)cn(C3CC3)c12 (stereo unspecified) [GATIFLOXACIN] | 0.08 (≈ 0.213 µM) | 0.02 (≈ 0.0533 µM) | 4.1 | – | – | – | –
9 | COC(=O)[C@H]1[C@H]2C[C@@H]3c4[nH]c5cc(OC)ccc5c4CCN3C[C@H]2C[C@@H](OC(=O)c2cc(OC)c(OC)c(OC)c2)[C@@H]1OC [RESERPINE] | – | 62 (≈ 102 µM) | – | – | – | – | –
10 | CC(=O)NC[C@H]1CN(c2ccc(N3CCOCC3)c(F)c2)C(=O)O1 [LINEZOLID] | 31.2 (≈ 92.6 µM) | 1.95 (≈ 5.78 µM) | 16 | – | – | – | –
11 | COc1cc(Cc2cnc(N)nc2N)cc(OC)c1OC [TRIMETHOPRIM] | 0.16 (≈ 0.551 µM) | 0.02 (≈ 0.0689 µM) | 8.2 | – | – | – | –
12 | CCCCCCCCCCCCOS(=O)(=O)[O-].[Na+] [SODIUM LAURYL SULFATE] | 250 | 31.2 | 8 | – | – | – | –
13 | NC[C@H]1O[C@H](O[C@H]2[C@H](O)[C@@H](O[C@H]3O[C@H](CO)[C@@H](O)[C@H](N)[C@H]3O)[C@H](N)C[C@@H]2N)[C@H](O)[C@@H](O)[C@@H]1O [KANAMYCIN] | 125 (≈ 258 µM) | 15.6 (≈ 32.3 µM) | 8 | – | – | – | –
14 | CO[C@H]1/C=C/O[C@@]2(C)Oc3c(C)c(O)c4c(O)c(c(/C=N/N5CCN(C)CC5)c(O)c4c3C2=O)NC(=O)/C(C)=C\C=C\[C@H](C)[C@H](O)[C@@H](C)[C@@H](O)[C@@H](C)[C@H](OC(C)=O)[C@@H]1C [RIFAMPIN] | 3.9 (≈ 4.74 µM) | 1.9 (≈ 2.31 µM) | 2.1 | – | – | – | –
15 | O=C(N[C@H](CO)[C@H](O)c1ccc([N+](=O)[O-])cc1)C(Cl)Cl [CHLORAMPHENICOL] | 3.13 (≈ 9.69 µM) | 0.39 (≈ 1.21 µM) | 8 | – | – | – | –
16 | CN[C@@H]1[C@H](O[C@H]2[C@H](O[C@H]3[C@H](O)[C@@H](O)[C@H](N=C(N)N)[C@@H](O)[C@@H]3N=C(N)N)O[C@@H](C)[C@]2(O)C=O)O[C@@H](CO)[C@H](O)[C@H]1O [STREPTOMYCIN] | 6.25 (≈ 10.7 µM) | 0.78 (≈ 1.34 µM) | 8 | – | – | – | –
17 | CN(C)[C@@H]1C(O)=C(C(N)=O)C(=O)[C@@]2(O)C(O)=C3C(=O)c4c(O)cccc4[C@@](C)(O)[C@H]3[C@H](O)[C@@H]12 [OXYTETRACYCLINE] | 0.39 (≈ 0.847 µM) | 0.1 (≈ 0.217 µM) | 4 | – | – | – | –
18 | CC[n+]1c(-c2ccccc2)c2cc(N)ccc2c2ccc(N)cc21.[Br-] [HOMIDIUM BROMIDE] | 62.5 | 7.8 | 8 | – | – | – | 30
19 | Cetyltrimethylammonium bromide | 7.8 | 3.9 | – | – | – | – | –
